Like-named read-outs stand apart in the source and are kept apart here. One block for each compound: values may come before it.
Tests used:
[1] = biological target: T1, B. subtilis EngA (Bacillus subtilis, UniProt P50743); type: biochemical; details: for Km / Vmax / kcat: GTP hydrolysis by EngA; for kcat: fitted; for GTPase activity corresponding to 100%: wild-type EngA, 300 mM KCl
T1 construct: full-length EngA (named hereafter as EngA) and its two shortened EngA variants, GD1 and GD2-KH were overexpressed in E. coli; His-tag (from pET15b; purified on Ni-IDA) (N); made in house; host or cells: E. coli C41(DE3)
Procedure: (§1) GTPase activities were determined using a coupled-enzymatic assay containing pyruvate kinase and lactate dehydrogenase as previously described. The proteins (2 µM or 8 µM of EngA in the presence of KCl or NaCl, respectively, and 4 µM for GD1 and 12.5 µM for GD2-KH) and the coupled assay system containing 50 mM Tris/HCl pH 8, 4 mM phosphoenol pyruvate, 0.4 mM NADH, 1 mM MgCl2, 30 µg pyruvate kinase and 15 µg lactate dehydrogenase, were mixed into a quartz cuvette (final volume of 750 µl) in the presence of GTP (up to 1 mM) and salts, either KCl or NaCl, as indicated in the figure legends. When the GTPase and XTPase activities of the wild-type EngA and the single point mutants were studied (Fig. 7), the assay medium (final volume of 500 µl) contained 3 mM MgCl2 and the pyruvate kinase was increased to 120 µg to ensure an immediate conversion of XDP back into XTP. The reaction was started by adding 3.2 µM or 0.8 µM of wild-type EngA or single point mutants in the absence or presence of 300 mM K^+, respectively. GTP or XTP hydrolysis was monitored by following the change in absorbance at 340 nm upon conversion of NADH to NAD^+, for 10 min at 37°C, using either a Hitachi U3350 or a Safas UVmc^2 spectrophotometer. The slope measured (ΔDO/min) was used to calculate the activity of the protein taking into account the εNADH340nm = 6220 l.mol^−1.cm^−1. Control experiments were systematically performed in the absence of nucleotides (protein alone) or in the absence of proteins (nucleotides alone) and the activities measured in all cases were negligible. Between many different EngA preparations, the specific activities measured at 1 mM GTP varied between 100–130 nmoles/min/mg protein.

[2] = biological target: T2, GD1 (Bacillus subtilis, UniProt P50743); assay: GTP hydrolysis coupled-enzymatic assay; type: biochemical
T2 construct: two shortened EngA variants that only contain GD1 or GD2-KH; His-tag (from pET15b; purified on Ni-IDA) (N); made in house; host or cells: E. coli C41(DE3)
T2 sequence (P50743 4-167 limits assumed): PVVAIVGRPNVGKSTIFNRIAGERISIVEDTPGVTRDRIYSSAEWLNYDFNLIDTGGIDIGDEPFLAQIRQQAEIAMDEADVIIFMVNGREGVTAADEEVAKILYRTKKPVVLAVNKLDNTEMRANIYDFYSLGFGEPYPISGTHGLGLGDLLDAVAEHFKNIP
Procedure: as §1

[3] = biological target: T3, GD2-KH (Bacillus subtilis, UniProt P50743); assay: GTP hydrolysis coupled-enzymatic assay; type: biochemical; details: for GTPase activity: GD2-KH
T3 construct: two shortened EngA variants that only contain GD1 or GD2-KH; His-tag (from pET15b; purified on Ni-IDA) (N); made in house; host or cells: E. coli C41(DE3)
T3 sequence (P50743 173-436): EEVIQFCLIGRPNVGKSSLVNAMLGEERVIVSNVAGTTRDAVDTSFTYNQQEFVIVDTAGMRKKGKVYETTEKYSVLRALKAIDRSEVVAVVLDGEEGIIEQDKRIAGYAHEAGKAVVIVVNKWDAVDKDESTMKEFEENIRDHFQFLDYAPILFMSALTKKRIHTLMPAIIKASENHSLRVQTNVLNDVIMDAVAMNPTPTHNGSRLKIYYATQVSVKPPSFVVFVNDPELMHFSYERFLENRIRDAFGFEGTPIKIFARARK
Procedure: as §1

[4] = system: T. maritima EngA; details: cited from earlier work
[5] = biological target: T4, EngA (Bacillus subtilis, UniProt P50743); assay: Fluorescence-based Thermal Shift Assay (TSA); type: binding; details: EngA with 1 mM nucleotide; no effector Tm 41.5
T4 construct: full-length EngA (named hereafter as EngA) and its two shortened EngA variants, GD1 and GD2-KH were overexpressed in E. coli; His-tag (from pET15b; purified on Ni-IDA) (N); made in house; host or cells: E. coli C41(DE3)
T4 sequence (P50743 1-436): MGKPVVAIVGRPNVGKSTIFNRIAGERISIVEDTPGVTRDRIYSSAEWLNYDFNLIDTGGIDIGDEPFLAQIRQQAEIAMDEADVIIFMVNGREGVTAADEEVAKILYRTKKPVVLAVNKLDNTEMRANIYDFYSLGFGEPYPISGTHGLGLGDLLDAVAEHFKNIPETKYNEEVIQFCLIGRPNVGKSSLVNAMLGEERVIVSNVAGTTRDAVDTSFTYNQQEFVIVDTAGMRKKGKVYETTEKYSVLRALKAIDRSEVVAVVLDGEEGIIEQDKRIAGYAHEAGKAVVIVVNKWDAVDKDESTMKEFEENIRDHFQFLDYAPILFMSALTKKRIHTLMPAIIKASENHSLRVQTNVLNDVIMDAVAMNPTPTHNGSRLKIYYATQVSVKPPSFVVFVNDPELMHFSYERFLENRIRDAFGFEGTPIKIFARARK
Procedure: (§2) Assays were performed into a 96-well thin-wall PCR plate (BioRad) using an IQ5 96-well format real-time PCR instrument (Bio-Rad) over a temperature range from 20°C to 90°C with temperature increments of 0.2°C [64]. Assay samples (23 µl) contained 50 mM Tris/HCl pH 8, 0.5 mg/ml of EngA or 1.5 mg/ml of GD1 or GD2-KH, and concentration of salt and/or nucleotides as indicated, and 2 µl of SYPRO Orange solution (Molecular Probes, Eugene, OR, 500x in DMSO diluted 5 times in water) was added. The plates were heated and changes in fluorescence for the environmentally sensitive dye SYPRO Orange were monitored through a charge-coupled device (CCD) camera. The melting temperature (Tm) values for each protein were determined graphically from the fluorescence first derivative of the melting curves. The wavelengths for excitation and emission were 470 nm and 570 nm, respectively.

[6] = biological target: T2, GD1; assay: Fluorescence-based Thermal Shift Assay (TSA); type: binding; details: for Tm: GD1 with 1 mM nucleotide, no effector Tm 51
Procedure: as §2

[7] = biological target: T3, GD2-KH; assay: Fluorescence-based Thermal Shift Assay (TSA); type: binding; details: for Tm: GD2-KH with 1 mM nucleotide, no effector Tm 42.8
Procedure: as §2

[8] = biological target: T5, GD1 (shortened B. subtilis EngA variant) (Bacillus subtilis, UniProt P50743); assay: Nucleotide binding monitored by intrinsic tryptophan fluorescence
T5 construct: two shortened EngA variants that only contain GD1 or GD2-KH; His-tag (from pET15b; purified on Ni-IDA) (N); made in house; host or cells: E. coli C41(DE3)
Procedure: (§3) Fluorescence measurements were performed essentially as described previously for the unmodified nucleotides or the N-methylanthraniloyl-GDP (MANT-GDP) analogue using a PTI QuantaMaster 4 spectrofluorimeter, [62]. Dissociation constants (K D) for nucleotides were calculated by monitoring intrinsic tryptophan fluorescence variation using 295 nm excitation wavelength, with a slit width of 2 nm, and scanning emission fluorescence between 310 and 400 nm (for the unmodified nucleotide) or 400 and 500 nm (for MANT-GDP), with a slit width of 4 nm. For the intrinsic tryptophan fluorescence, inner filter effect was corrected using N-Acetyltryptophanamide (NATA) as a reference. 1 µM NATA or 0.5 µM of YphC were mixed with 50 mM Tris/HCl pH 8, 2 mM MgCl2, NaCl or KCl and increasing amount of nucleotide (GDP, GMPPNP or MANT-GDP), as indicated in the figure legends. The fluorescence was normalized respective to the integrated value of the fluorescence peak obtained in the absence of unmodified nucleotide (between 310 and 400 nm) or MANT-GDP (between 400 and 500 nm). The data were fitted using the GraFit 5.0.11 software with the following equation: [drawing 1] where F is the relative fluorescence intensity in the presence of nucleotide, F min is the relative fluorescence in the absence of nucleotide, F max is the fluorescence intensity at saturating concentration of nucleotide, L is the nucleotide concentration, E is the protein concentration and K D is the dissociation constant of the protein-nucleotide complex.

[9] = biological target: T6, B. subtilis EngA (Bacillus subtilis, UniProt P50743); assay: as above
T6 construct: full-length EngA (named hereafter as EngA) and its two shortened EngA variants, GD1 and GD2-KH were overexpressed in E. coli; His-tag (from pET15b; purified on Ni-IDA) (N); made in house; host or cells: E. coli C41(DE3)
T6 sequence (P50743 1-436): T4 sequence (P50743 1-436)
Procedure: as §3

[10] = biological target: T7, GD2-KH (shortened B. subtilis EngA variant) (Bacillus subtilis, UniProt P50743); assay: as above
T7 construct: two shortened EngA variants that only contain GD1 or GD2-KH; His-tag (from pET15b; purified on Ni-IDA) (N); made in house; host or cells: E. coli C41(DE3)
Procedure: as §3

[11] = biological target: S. typhimurium EngA; design: method as in PMID 17905831; details: cited from earlier work
[12] = biological target: T6, B. subtilis EngA; assay: Fluorescence resonance energy transfer between tryptophan residues and MANT moiety; type: binding; details: FRET Trp to MANT
Procedure: as §3, with “1 µM NATA or 0.5 µM of YphC were mixed with 50 mM Tris/HCl pH 8, 2 mM MgCl2, NaCl or KCl and increasing amount of nucleotide (GDP, GMPPNP or MANT-GDP), as indicated in the figure legends.” left out

[13] = system: E. coli EngA; design: method as in PMID 16963571; details: cited from earlier work
[14] = system: M. smegmatis EngA; design: method as in PMID 22506030; details: cited from earlier work

SMILES: [K+] [K^+, potassium]
increase in catalytic efficiency of EngA ([1]; 300 mM K+ vs absence of K+): 20 fold
stimulation of the GTPase activity of EngA ([1]; 1 M KCl, 1 mM GTP): ~15 fold
GTPase activity ([1]; EngA, 0.4 M KCl): ~5 min⁻¹
K+ concentration giving maximal GTPase activity ([2]; GD1): 500 mM
GTPase activity ([2]; GD1, 1M KCl): ~3.4 min⁻¹
GTPase activity ([3]; 1M KCl): ~0.45 min⁻¹
increase of GTPase activity upon K+ binding ([3]; GD2 domain): ~100 fold
GTPase activity ([4]; 0.4 M KCl): 0.11 min⁻¹
stimulation of GTPase activity by K+ ([4]; T. maritima EngA): about 4 fold

SMILES: Nc1nc2c(ncn2[C@@H]2O[C@H](COP(=O)(O)OP(=O)(O)NP(=O)(O)O)[C@@H](O)[C@H]2O)c(=O)[nH]1 [GMPPNP]
Tm [5]: 48.8 °C
Tm [6]: 55.5 °C
Tm [7]: 48.3 °C
Kd ([8]; GD1, 300 mM KCl): 35.7 ± 4.9 µM
Kd ([8]; GD1, 300 mM NaCl): 17.8 ± 2.4 µM
Kd ([9]; 300 mM KCl, read-out: KD): 18.8 ± 2.8 µM
Kd ([9]; 300 mM NaCl, read-out: KD): 16.5 ± 3.7 µM
Kd ([9]; no salt (absence of K+), 2 mM MgCl2, 25°C, read-out: KD): 25.7 ± 2.8 µM
Kd ([10]; 300 mM KCl): 6.8 ± 2 µM
Kd ([10]; 300 mM NaCl): 15.2 ± 1.3 µM

SMILES: Nc1nc2c(ncn2[C@@H]2O[C@H](COP(=O)(O)OP(=O)(O)O)[C@@H](O)[C@H]2O)c(=O)[nH]1 [GDP]
Kd ([11]; both G-domains): 1 to 3 µM
Tm [5]: 59.4 °C
Tm [6]: 64 °C
ΔTm at 1000 µM ([6]; pH 8, read-out: Tm increase): ~13 °C
Tm [7]: 55.8 °C
ΔTm at 1000 µM ([7]; pH 8, read-out: Tm increase): ~13 °C
Kd ([8]; GD1, 300 mM KCl): 4.5 ± 0.9 µM
Kd ([8]; GD1, 300 mM NaCl): 2.7 ± 0.4 µM
Kd ([9]; KD, 300 mM KCl): 16.3 ± 2.3 µM
Kd ([9]; KD, 300 mM NaCl): 12.8 ± 2.9 µM
Kd ([9]; KD, no salt (absence of K+), 2 mM MgCl2, 25°C): 8 ± 1 µM
Kd ([10]; 300 mM KCl): 2.9 ± 0.8 µM
Kd ([10]; 300 mM NaCl): 1.6 ± 0.2 µM

Kd ([12]; 300 mM KCl): 2.9 ± 0.2 µM
Kd ([12]; no salt): 3.1 ± 0.2 µM
SMILES: CNc1ccccc1C(=O)O[C@H]1[C@@H](O)[C@H](n2cnc3c(=O)[nH]c(N)nc32)O[C@@H]1COP(=O)(O)OP(=O)(O)O [mant-GDP, N-methylanthraniloyl-GDP]

SMILES: [Na+] [sodium]
effect of salt on the GTPase activity of EngA ([1]; K+ replaced by other monovalent cation, 1 mM GTP): no effect

SMILES: Nc1nc2c(ncn2[C@@H]2O[C@H](COP(=O)(O)OP(=O)(O)OP(=O)(O)O)[C@@H](O)[C@H]2O)c(=O)[nH]1 [GTP]
Kd ([11]; higher-affinity site (proposed GD1)): ~12 µM
Kd ([11]; lower-affinity site (proposed GD2)): > 100 µM
kcat ([13]; 400 mM K+): 0.0193 s⁻¹
Km ([13]; GTP, E. coli EngA): 143 µM
specific activity ([1]; 1 mM GTP, different EngA preparations): 100–130 nmoles/min/mg protein
GTPase activity (kcat) ([1]; EngA, absence of K+): 0.005 to 0.0083 s⁻¹
Km ([1]; 300 mM K+): 153 µM
Vmax ([1]; 300 mM K+): 144.5±3.4 nmol/min/mg protein
kcat ([1]; 300 mM K+): ~0.123 s⁻¹
Vmax ([1]; absence of K+): 6.1±0.2 nmol/min/mg protein
Km ([1]; no K+): 111 µM
kcat ([1]; no K+): ~0.005 s⁻¹
GTPase activity corresponding to 100% ([1]; 200 µM nucleotide): 77 µmol GTP hydrolyzed/min/mg proteins
GTPase activity corresponding to 100% ([1]; 1 mM GTP): 100 µmol GTP hydrolyzed/min/mg proteins
GTPase activity ([2]; GD1, absence of K+): ~0.6 min⁻¹
GTPase activity ([3]; absence of K+): 0.004 min⁻¹
kcat ([4]; 400 mM K+): 0.0145 s⁻¹
Km ([4]; GTP, T. maritima EngA): 110 µM
Km ([14]; GTP, M. smegmatis EngA): 39 µM
kcat ([14]; absence of K+): 8.3e-05 s⁻¹
